Source: ChEMBL document CHEMBL1201862, “PubChem BioAssay data set” (2004)
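1) Cells in 96-well plates. 2) Compound, 48 h, 5 concentrations. 3) Linear interpolation between surrounding doses. 4) Unreached endpoint = highest concentration. GI50 = concentration required for 50% inhibition of growth.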 The source made the active and inactive calls. Cut-off read from the data, not from the text of the source: active = GI50 up to about 1.1 µM and inactive = higher.

Columns and labels:
Assay in all cases: NCI-60 cell line screen, 48 h
U-251 = system: U-251
CAKI-1 = system: CAKI-1
SF-295 = system: SF-295
SW-620 = system: SW-620
SK-OV-3 = system: SK-OV-3
NCI-H460 = system: NCI-H460
RPMI-8226 = system: RPMI-8226
SK-MEL-2 = system: SK-MEL-2
DU-145 = system: DU-145
786-0 = system: 786-0
NCI-H226 = system: NCI-H226
HOP-92 = system: HOP-92
SN12C = system: SN12C
MDA-MB-435 = system: MDA-MB-435
MDA-N = system: MDA-N
M14 = system: M14
EKVX = system: EKVX
UACC-62 = system: UACC-62
OVCAR-8 = system: OVCAR-8
NCI/ADR-RES = system: NCI/ADR-RES

Measured: GI50

CN1CCN(CC(=O)Nc2cccc3ccccc23)CC1
inactive: U-251 > 100 µM | CAKI-1 > 100 µM | SF-295 > 100 µM | SW-620 > 100 µM | SK-OV-3 > 100 µM | NCI-H460 > 100 µM | RPMI-8226 > 100 µM | SK-MEL-2 > 100 µM | DU-145 > 100 µM | 786-0 > 100 µM | NCI-H226 > 100 µM | HOP-92 > 100 µM | SN12C > 100 µM | MDA-MB-435 > 100 µM | MDA-N > 100 µM | M14 > 100 µM | EKVX > 100 µM | UACC-62 > 100 µM | OVCAR-8 > 100 µM | NCI/ADR-RES > 100 µM

COc1cc([C@@H]2c3cc4c(cc3[C@@H](c3c(O)cc(O)c5c3O[C@H](c3ccc(O)c(O)c3)[C@H](OC(=O)c3cc(O)c(O)c(O)c3)C5)[C@H]3COC(=O)[C@H]23)OCO4)cc(OC)c1OC
inactive: U-251 6.12 µM | CAKI-1 13.8 µM | SF-295 3.91 µM | SW-620 5.87 µM | SK-OV-3 9.46 µM | NCI-H460 7.33 µM | RPMI-8226 5 µM | SK-MEL-2 11.7 µM | DU-145 22.7 µM | 786-0 12.6 µM | NCI-H226 2.65 µM | HOP-92 > 100 µM | SN12C 12.9 µM | MDA-MB-435 2.54 µM | MDA-N 3.07 µM | M14 9.93 µM | EKVX 45.5 µM | UACC-62 4.73 µM | OVCAR-8 7.1 µM | NCI/ADR-RES 33 µM

COc1cc(-c2c3c([nH]c(=O)c2C#N)-c2cc([N+](=O)[O-])ccc2CCC3)cc(OC)c1OC
inactive: U-251 23.6 µM | CAKI-1 26.9 µM | SF-295 16.1 µM | SW-620 40.5 µM | SK-OV-3 15.5 µM | NCI-H460 16.8 µM | RPMI-8226 9.08 µM | SK-MEL-2 17.9 µM | DU-145 25.8 µM | 786-0 24.7 µM | NCI-H226 22.7 µM | HOP-92 25.4 µM | SN12C 16.2 µM | MDA-MB-435 25.9 µM | MDA-N 21.1 µM | M14 35.1 µM | EKVX 24.4 µM | UACC-62 13.3 µM | OVCAR-8 17.8 µM | NCI/ADR-RES 42.4 µM

CC(=O)c1sc2[n+](c1C)C(=O)/C(=C\c1ccccc1Cl)S2
inactive: U-251 16.6 µM | CAKI-1 24.5 µM | SF-295 16 µM | SW-620 17.3 µM | SK-OV-3 25.1 µM | NCI-H460 16.3 µM | RPMI-8226 17.5 µM | SK-MEL-2 24 µM | DU-145 18.7 µM | 786-0 21.9 µM | NCI-H226 13.3 µM | HOP-92 56.2 µM | SN12C 34.2 µM | MDA-MB-435 15.3 µM | MDA-N 19.4 µM | M14 18.6 µM | EKVX 26.8 µM | UACC-62 13.1 µM | OVCAR-8 24.3 µM | NCI/ADR-RES 21 µM

COc1cc2cc3c4c(cc(OC)c(OC)c4c2cc1OC)CCN3C
inactive: U-251 3.58 µM | CAKI-1 4.86 µM | SF-295 3.07 µM | SW-620 7.36 µM | SK-OV-3 9.18 µM | NCI-H460 2.65 µM | RPMI-8226 2.72 µM | SK-MEL-2 10.3 µM | DU-145 4.97 µM | 786-0 4.29 µM | NCI-H226 7.35 µM | HOP-92 9.93 µM | SN12C 7.38 µM | MDA-MB-435 5.56 µM | MDA-N 13.1 µM | M14 6.9 µM | EKVX 15.3 µM | UACC-62 4.83 µM | OVCAR-8 12.7 µM | NCI/ADR-RES 4.2 µM

C/C(=C\CO)CC[C@@H]1[C@@]2(C)CCCC(C)(C)[C@@H]2CC[C@@]1(C)O
inactive: U-251 17.3 µM | CAKI-1 28.6 µM | SF-295 17.6 µM | SW-620 22.7 µM | SK-OV-3 21.3 µM | NCI-H460 17.3 µM | RPMI-8226 17.2 µM | SK-MEL-2 17.6 µM | DU-145 18 µM | 786-0 20.4 µM | NCI-H226 18.5 µM | HOP-92 16.7 µM | SN12C 17.5 µM | MDA-MB-435 18.3 µM | MDA-N 18.7 µM | M14 23.4 µM | EKVX 24.8 µM | UACC-62 14.1 µM | OVCAR-8 16.2 µM | NCI/ADR-RES 17.1 µM

COC(=O)/C=C(/C(=O)OC)c1cc2ccc3c([nH]c4ccccc43)c(C)c-2c1
inactive: U-251 3.85 µM | CAKI-1 6.32 µM | SF-295 4.12 µM | SW-620 4.93 µM | SK-OV-3 7.69 µM | NCI-H460 4.45 µM | RPMI-8226 3.72 µM | SK-MEL-2 7.5 µM | DU-145 9.73 µM | 786-0 4.78 µM | NCI-H226 5.98 µM | HOP-92 1.21 µM | SN12C 10.1 µM | MDA-MB-435 3.94 µM | MDA-N 2.9 µM | M14 4.37 µM | EKVX 3.76 µM | UACC-62 4.66 µM | OVCAR-8 3.03 µM | NCI/ADR-RES 3.46 µM

C[C@]12CC[C@@H]3c4ccc(OC(=O)c5ccccc5)cc4CC[C@H]3[C@@H]1CC[C@@H]2Oc1c2ccccc2nc2ccccc12
inactive: U-251 8.41 µM | CAKI-1 9.73 µM | SF-295 16 µM | SW-620 16.9 µM | SK-OV-3 20.7 µM | NCI-H460 8.53 µM | RPMI-8226 7.69 µM | SK-MEL-2 16.2 µM | DU-145 9.23 µM | 786-0 7.66 µM | NCI-H226 14.9 µM | HOP-92 12.9 µM | MDA-MB-435 5.46 µM | MDA-N 3.53 µM | M14 7.43 µM | EKVX 1.52 µM | UACC-62 17.7 µM | OVCAR-8 13 µM | NCI/ADR-RES 11.4 µM

Cc1cc(S(=O)(=O)Nc2nc3ccccc3nc2-c2ccc(Cl)cc2)c(S)cc1Cl
inactive: U-251 16.4 µM | CAKI-1 18.7 µM | SF-295 18.9 µM | SK-OV-3 17.3 µM | NCI-H460 13.6 µM | RPMI-8226 23.1 µM | SK-MEL-2 13.7 µM | DU-145 16.3 µM | 786-0 21 µM | NCI-H226 23.1 µM | HOP-92 20.4 µM | SN12C 25.6 µM | MDA-MB-435 17.3 µM | MDA-N 18 µM | M14 19.3 µM | EKVX 15.7 µM | UACC-62 12.2 µM | OVCAR-8 23.2 µM | NCI/ADR-RES 19.4 µM

[O-][S+](c1ccccc1)C1CC2CC3(CCC21O)OCCO3 (configuration not stated)
inactive: U-251 > 100 µM | CAKI-1 > 100 µM | SF-295 > 100 µM | SW-620 > 100 µM | SK-OV-3 > 100 µM | NCI-H460 > 100 µM | RPMI-8226 > 100 µM | SK-MEL-2 > 100 µM | DU-145 > 100 µM | 786-0 > 100 µM | NCI-H226 > 100 µM | HOP-92 > 100 µM | MDA-MB-435 > 100 µM | MDA-N > 100 µM | M14 > 100 µM | EKVX > 100 µM | UACC-62 > 100 µM | OVCAR-8 > 100 µM | NCI/ADR-RES > 100 µM
